Key:
[1] = tested on: growth cone of an NGF-dependent neuron (TrkA neuron); assay: In vitro growth cone turning assay, NGF-supplemented medium; type: cell-based, chicken; conditions: for change in axon extension direction in response to concentration gradient: NGF-supplemented medium, TrkA neuron, lysophospholipid 10 μM in pipette, 45 minutes
Excerpt: (§1) The method described in T. Tojima et al., Nat Neurosci 10, 58-66 (January, 2007) was somewhat modified and employed to perform a primary culture of isolated DRG sensory nerves. Specifically, a chicken embryo at HH St. 29 was separated from the eggshell and decapitated. The body was transferred to ice-cooled PBS. Organs were removed from the obtained body with forceps, and the spine was exposed by ventral laminectomy. DRGs were isolated from the thoracic or lumbosacral spinal cord, broken into pieces fine watchmaker's forceps, and transferred into an L15 medium on ice. The DRG obtained by the dissection was treated with trypsin at 37° C. for 20 minutes, followed by centrifugation at 100 g for 1 minute. A minimum amount of an L15 medium was added to the pellets thus obtained, and the cells were manually suspended (repeated manual trituration). The cell suspension was again centrifuged at 100 g for 1 minute, and the supernatant was removed. Subsequently, the pellets were resuspended in a Leibovitz's L15 medium supplemented with N-2 (manufactured by Invitrogen Corp.), 750 μg/ml of BSA (manufactured by GIBCO), and 25 ng/ml of NGF or 50 ng/ml of NT-3 (manufactured by Sigma-Aldrich Corporation). The cells were seeded on glass dishes precoated with mouse-derived laminin (manufactured by Invitrogen Corp.) at […] such that the cell count would be 10,000 per dish. The dishes were placed in a culturing environment of 5% CO2 at 37° C. for approximately 2 hours before used in a growth cone turning assay.
The in vitro growth cone turning assay was conducted according to the methods described in M. Lohof, M. Quillan, Y. Dan, M. M. Poo, J Neurosci 12, 1253-61 (April, 1992), J. Q. Zheng, M. M. Poo, J. A. Connor, Perspect Dev Neurobiol 4, 205-13 (1996), and Y. Xiang et al., Nat Neurosci 5, 843-8 (September, 2002), which were somewhat modified. Specifically, lysophosphatidylcholine (manufactured by Sigma-Aldrich Corporation) or Lyso-PtdGlc prepared by a method described later was diluted with a vehicle (1% (v/v) methanol/PBS) such that the concentration would be 10 μM. […]

[2] = tested on: growth cone of an NT-3-dependent neuron (TrkC neuron); assay: In vitro growth cone turning assay, NT-3-supplemented medium; type: cell-based, chicken; conditions: lysophospholipid 10 μM in pipette, 45 minutes
Excerpt: as §1, with “The dishes were placed in a culturing environment of 5% CO2 at 37° C. for approximately 2 hours before used in a growth cone turning assay.” left out

Molecule	change in axon extension direction in response to concentration gradient [1]	change in axon extension direction in response to concentration gradient [2]	chemorepellent effect on growth cone turning ([1]; in the presence of 50 μg/ml anti-Lyso-PtdGlc antibody)
CCCCCCCCCCCCCCCCCC(=O)OCC(O)COP(=O)(O)O[C@@H]1OC(CO)[C@@H](O)C(O)C1O (some centres unmarked) [Lyso-PtdGlc, lysophosphatidylglucoside]	changed its extension direction	no significant change	–
Lysophosphatidic acid [LPA]	–	–	strong chemorepellent effect
Lysophosphatidylcholine [LPC]	no significant influence	no significant influence	–

From patent US8591902B2, “Antibody binding to lysophosphatidylglucoside, and composition comprising the same” (Riken, priority 2010, dated 2013)
